In data set [1] the test system is Rattus norvegicus. The data set can be described thus: Hypolipidemic activity in CFY Sprague-Dawley rat assessed as serum cholesterol level at 0.25% dietary level administered for 7 days relative to control. It counts as functional.
Data set [2] deals with Rattus norvegicus. Put plainly: Hypolipidemic activity in CFY Sprague-Dawley rat assessed as serum triglyceride level at 0.25% dietary level administered for 7 days relative to control. It counts as functional.
The test system of data set [3] is Rattus norvegicus. The data set can be described thus: Toxicity in CFY Sprague-Dawley rat assessed as body weight gain at 0.25% dietary level administered for 7 days relative to control. Particulars: in vivo, po, 168 h. The class given is organism-based.
Data set [4] has as its system Rattus norvegicus. The data set can be described thus: Toxicity in CFY Sprague-Dawley rat assessed as relative liver weight at 0.25% dietary level administered for 7 days relative to control. It counts as organism-based. Particulars: in vivo, po, 168 h.

In ChEMBL document CHEMBL3272121, “Hypolipidemic analogues of ethyl 4-benzyloxybenzoate” (J Med Chem, 1977) one finds Activity data, which are given here for 46 molecules.

`CCCc1ccc(OCc2ccc(C)cc2)c(OC)c1`: the Activity is on record as -13% in the data set on Rattus norvegicus [1], 216% in the data set with Rattus norvegicus [2], -18% in the data set with Rattus norvegicus [3] and 33% with Rattus norvegicus [4].

As to `CCOC(=O)c1ccc(OCc2ccc(Cl)c(Cl)c2)cc1`, the Activity is given as -7% with Rattus norvegicus [1], 5% in the data set with Rattus norvegicus [2], -5% in the data set on Rattus norvegicus [3] and 10% with Rattus norvegicus [4].

For `CCCCCCCCCCCCc1ccc(OCc2ccccc2)cc1`, the Activity with Rattus norvegicus [1] is 2%; with Rattus norvegicus [2], -37%; with Rattus norvegicus [3], 9%; with Rattus norvegicus [4] it was 8%.

Take `O=C([O-])c1ccc(OCc2ccccc2)cc1.O=C([O-])c1ccc(OCc2ccccc2)cc1.[Ca+2]`: the Activity with Rattus norvegicus [1] is -8%; with Rattus norvegicus [2], -53%; in the data set with Rattus norvegicus [3] it was -12%; with Rattus norvegicus [4], 0%.

As to `CCOC(=O)Cc1ccc(OCc2cccc(OC)c2OC)cc1`, the Activity with Rattus norvegicus [1] is listed as 1%; with Rattus norvegicus [2], -25%; in the data set on Rattus norvegicus [3] it was 12%; in the data set on Rattus norvegicus [4], 20%.

As for `CCOC(=O)c1ccc(COc2ccc(C)c(C)c2)cc1`, the Activity is 3% with Rattus norvegicus [1], 109% in the data set on Rattus norvegicus [2], -1% in the data set with Rattus norvegicus [3] and 10% in the data set on Rattus norvegicus [4].

With `CCOC(=O)c1ccc(COc2ccc(F)cc2)cc1`, the Activity was -14% in the data set on Rattus norvegicus [1], -50% in the data set with Rattus norvegicus [2], 16% in the data set on Rattus norvegicus [3] and 19% with Rattus norvegicus [4].

Turning to `CCOC(=O)CCc1ccc(OCc2cccc(OC)c2OC)cc1`, the Activity in the data set on Rattus norvegicus [1] is given as 7%; in the data set on Rattus norvegicus [2], -9%; in the data set on Rattus norvegicus [3], 4%; in the data set with Rattus norvegicus [4] it was 23%.

Consider `CCCCCCCCCCOC(=O)c1ccc(OCc2ccccc2)cc1`, for which the Activity was -9% in the data set on Rattus norvegicus [1], -64% with Rattus norvegicus [2], -17% with Rattus norvegicus [3] and 13% in the data set on Rattus norvegicus [4].

On to `CCOC(=O)c1ccc(OCc2ccc([N+](=O)[O-])cc2)cc1`, for which the Activity in the data set on Rattus norvegicus [1] is given as -12%; in the data set on Rattus norvegicus [2], -28%; with Rattus norvegicus [3] it was -15%; with Rattus norvegicus [4], -2%.

In the case of `CCOC(=O)c1ccc(COc2ccc(C#N)cc2)cc1`, the Activity with Rattus norvegicus [1] is given as -12%; in the data set with Rattus norvegicus [2], -21%; in the data set on Rattus norvegicus [3], -46%; with Rattus norvegicus [4] it was 20%.

Consider `CCOC(=O)c1cccc(OCc2ccccc2)c1`, for which the Activity was 4% in the data set on Rattus norvegicus [1], -30% in the data set with Rattus norvegicus [2], 4% in the data set with Rattus norvegicus [3] and 6% with Rattus norvegicus [4].

With `CCCCOC(=O)c1ccc(OCc2ccccc2)cc1`, the Activity in the data set on Rattus norvegicus [1] is given as -10%; in the data set with Rattus norvegicus [2] it was -47%; in the data set with Rattus norvegicus [3], -18%; in the data set on Rattus norvegicus [4], 4%.

Turning to `CCOC(=O)c1ccc(COc2ccc(C(=O)OCC)cc2)cc1`, the Activity with Rattus norvegicus [1] is -11%; in the data set on Rattus norvegicus [2] it was -60%; with Rattus norvegicus [3], 3%; in the data set on Rattus norvegicus [4], -2%.

For `CCOC(=O)CCc1ccc(OCc2ccccc2F)cc1`, the Activity was -4% with Rattus norvegicus [1], -49% in the data set on Rattus norvegicus [2], 14% with Rattus norvegicus [3] and 7% in the data set on Rattus norvegicus [4].

As for `CCOC(=O)c1ccc(COc2ccc(Br)cc2)cc1`, the Activity in the data set with Rattus norvegicus [1] is listed as -6%; in the data set on Rattus norvegicus [2] it was -16%; in the data set with Rattus norvegicus [3] it was 3%; in the data set on Rattus norvegicus [4], 24%.

In the case of `COc1cc(C(C)=O)ccc1OCc1ccccc1`, the Activity with Rattus norvegicus [1] is 5%; in the data set on Rattus norvegicus [2], -51%; in the data set on Rattus norvegicus [3] it was -37%; in the data set with Rattus norvegicus [4], 13%.

On to `COc1cc(C(=O)O)ccc1OCc1ccccc1`, for which the Activity in the data set with Rattus norvegicus [1] was 0%; in the data set with Rattus norvegicus [2], -28%; in the data set on Rattus norvegicus [3], 15%; with Rattus norvegicus [4], 6%.

Turning to `CCOC(=O)CCc1ccc(OCc2cccc(F)c2)cc1`, the Activity is -11% in the data set with Rattus norvegicus [1], 57% with Rattus norvegicus [2], 12% in the data set with Rattus norvegicus [3] and 7% in the data set on Rattus norvegicus [4].

Consider `O=C([O-])c1ccc(OCc2ccccc2)cc1.[K+]`, for which the Activity with Rattus norvegicus [1] is -20%; with Rattus norvegicus [2] it was -57%; with Rattus norvegicus [3], -12%; with Rattus norvegicus [4], 0%.

With `NC(=O)c1ccc(OCc2ccccc2)cc1`, the Activity is recorded as -1% in the data set on Rattus norvegicus [1], -63% with Rattus norvegicus [2], -2% with Rattus norvegicus [3] and 13% in the data set on Rattus norvegicus [4].

Take `CCCCCCOC(=O)c1ccc(OCc2ccccc2)cc1`: the Activity is listed as -9% with Rattus norvegicus [1], -64% in the data set on Rattus norvegicus [2], -3% in the data set on Rattus norvegicus [3] and 8% in the data set on Rattus norvegicus [4].

Turning to `CCOC(=O)c1ccc(COc2ccc(OC)cc2)cc1`, the Activity is 4% with Rattus norvegicus [1], -57% in the data set with Rattus norvegicus [2], -19% in the data set with Rattus norvegicus [3] and -4% in the data set with Rattus norvegicus [4].

Regarding `CCOC(=O)c1ccc(OCc2ccccc2C)cc1`, the Activity in the data set with Rattus norvegicus [1] is -10%; in the data set on Rattus norvegicus [2], -58%; in the data set on Rattus norvegicus [3] it was -23%; with Rattus norvegicus [4] it was 0%.

`O=C(O)c1ccc(OCc2ccc(Cl)c(Cl)c2)cc1`: the Activity is on record as -9% in the data set on Rattus norvegicus [1], -20% in the data set with Rattus norvegicus [2], 7% in the data set on Rattus norvegicus [3] and 18% in the data set with Rattus norvegicus [4].

For `CCOC(=O)c1ccc(OCc2ccc(OC)c(OC)c2)cc1`, the Activity is on record as -1% with Rattus norvegicus [1], -33% in the data set with Rattus norvegicus [2], -20% in the data set on Rattus norvegicus [3] and 11% in the data set with Rattus norvegicus [4].

Regarding `CCCCCCCCCCCCOC(=O)c1ccc(OCc2ccccc2)cc1`, the Activity in the data set on Rattus norvegicus [1] is recorded as -11%; in the data set on Rattus norvegicus [2], -57%; in the data set with Rattus norvegicus [3], -3%; in the data set with Rattus norvegicus [4], 6%.

As for `O=C(NC1CCCCC1)c1ccc(OCc2ccccc2)cc1`, the Activity in the data set on Rattus norvegicus [1] was -5%; with Rattus norvegicus [2], -18%; in the data set with Rattus norvegicus [3], -21%; with Rattus norvegicus [4], 5%.

With `O=C(OC1CCCC1)c1ccc(OCc2ccccc2)cc1`, the Activity in the data set with Rattus norvegicus [1] is reported as -14%; in the data set with Rattus norvegicus [2], -29%; in the data set on Rattus norvegicus [3], -4%; in the data set on Rattus norvegicus [4] it was -14%.

With `CCOC(=O)c1ccc(COc2ccc(C)cc2C)cc1`, the Activity in the data set on Rattus norvegicus [1] stood at 3%; in the data set on Rattus norvegicus [2], 2%; in the data set with Rattus norvegicus [3] it was 0%; in the data set with Rattus norvegicus [4], 0%.

As to `CCOC(=O)c1ccc(OCc2ccccc2Cl)cc1`, the Activity in the data set with Rattus norvegicus [1] is recorded as -7%; with Rattus norvegicus [2], -46%; with Rattus norvegicus [3] it was -16%; in the data set with Rattus norvegicus [4] it was 7%.

As to `CCOC(=O)c1ccc(OCc2ccc(OC)cc2)cc1`, the Activity with Rattus norvegicus [1] is on record as -7%; with Rattus norvegicus [2], -55%; in the data set with Rattus norvegicus [3] it was -52%; in the data set on Rattus norvegicus [4], 20%.

For the molecule `CCOC(=O)c1ccccc1OCc1ccccc1`, the Activity is on record as 0% with Rattus norvegicus [1], -15% in the data set on Rattus norvegicus [2], -26% in the data set on Rattus norvegicus [3] and -2% in the data set on Rattus norvegicus [4].

`CCOC(=O)CCCc1ccc(OCc2ccccc2)cc1`: the Activity in the data set on Rattus norvegicus [1] is on record as -10%; with Rattus norvegicus [2] it was -59%; in the data set on Rattus norvegicus [3] it was -57%; in the data set with Rattus norvegicus [4], 9%.

For the molecule `CC(=O)c1ccc(OCc2ccccc2)cc1`, the Activity was 9% with Rattus norvegicus [1], -46% with Rattus norvegicus [2], -11% in the data set on Rattus norvegicus [3] and -6% in the data set on Rattus norvegicus [4].

For the molecule `COc1ccccc1COc1ccc(C(=O)O)cc1`, the Activity with Rattus norvegicus [1] is -29%; in the data set with Rattus norvegicus [2], 71%; with Rattus norvegicus [3], 3%; in the data set with Rattus norvegicus [4] it was 17%.

For the molecule `CCOC(=O)c1ccc(OCc2cccc(OC)c2)cc1`, the Activity in the data set with Rattus norvegicus [1] is reported as -10%; in the data set on Rattus norvegicus [2], -32%; with Rattus norvegicus [3], 2%; in the data set on Rattus norvegicus [4] it was 4%.

Take `OCc1ccc(OCc2ccccc2)cc1`: the Activity is reported as -3% in the data set with Rattus norvegicus [1], -45% with Rattus norvegicus [2], 11% in the data set on Rattus norvegicus [3] and 15% in the data set with Rattus norvegicus [4].

As to `O=C(Oc1ccccc1)c1ccc(OCc2ccccc2)cc1`, the Activity in the data set with Rattus norvegicus [1] is 0%; with Rattus norvegicus [2] it was -18%; in the data set on Rattus norvegicus [3], -1%; in the data set on Rattus norvegicus [4] it was 0%.

Regarding `Cc1ccc(OCc2ccccc2)cc1C`, the Activity in the data set on Rattus norvegicus [1] is listed as -3%; in the data set on Rattus norvegicus [2], -62%; in the data set with Rattus norvegicus [3], 24%; with Rattus norvegicus [4], 13%.

On to `CCOC(=O)c1ccc(COc2ccc(Cl)cc2)cc1`, for which the Activity is listed as -13% with Rattus norvegicus [1], 7% with Rattus norvegicus [2], -15% in the data set on Rattus norvegicus [3] and 42% in the data set with Rattus norvegicus [4].

In the case of `Cc1ccc(COc2ccc(C(=O)O)cc2)cc1`, the Activity is -10% in the data set with Rattus norvegicus [1], -57% with Rattus norvegicus [2], -2% with Rattus norvegicus [3] and 11% in the data set with Rattus norvegicus [4].

As for `O=C(c1ccc(OCc2ccccc2)cc1)N1CCCCC1`, the Activity in the data set with Rattus norvegicus [1] is recorded as 14%; in the data set with Rattus norvegicus [2] it was 10%; with Rattus norvegicus [3], -67%; in the data set on Rattus norvegicus [4], 2%.

Consider `O=Cc1ccc(OCc2ccc(F)cc2)cc1`, for which the Activity is given as -15% with Rattus norvegicus [1], -59% in the data set on Rattus norvegicus [2], 16% with Rattus norvegicus [3] and 15% in the data set with Rattus norvegicus [4].

On to `N#Cc1ccc(OCc2ccccc2)cc1`, for which the Activity is 7% in the data set with Rattus norvegicus [1], -31% in the data set with Rattus norvegicus [2], -14% with Rattus norvegicus [3] and 8% in the data set with Rattus norvegicus [4].

`CCCCCCCCCCCCNC(=O)c1ccc(OCc2ccccc2)cc1`: the Activity in the data set with Rattus norvegicus [1] is on record as 1%; in the data set with Rattus norvegicus [2] it was -11%; in the data set with Rattus norvegicus [3] it was 2%; with Rattus norvegicus [4], -5%.
